≈ marks a conversion by molar mass, not a printed value.
What was measured:
[1] = tested on: E. coli (AAC(3)IV); assay: MIC 50, broth micro-dilution, E. coli expressing AAC(3)IV; assay type: cell-based, Escherichia coli
Protocol: (§1) Plasmid transformation. Approximately 500 ng of the pET-9b(+) (Cat. No. 69432-3, Merck), pAT21-1 (provided by Prof. Dr. Patrice Courvalin, M.D., Pasteur Institute, France; prepared according to Trieu-Cuot et. al, Mol. Gen. Genet. 198(2), 348 (1985)), pBluescript::AAC(6′)-Ie/APH(2″)-Ia (provided by Prof. Dr. Sergei Vakulenko, M.D., University of Notre Dame, Ind., USA; prepared according to S. B. Vakulenko et. al., J. Biol. Chem. 287 (52), 43262 (2012)), pBlue_lpp_aacC3_rrnC and pSET152 (Cat. No. PVT3395, Life Science Market; prepared according to Bierman et al., Gene 116 (1), 43 (1992)) plasmids, encoding APH(3′)-Ia (SEQ ID NO:2), APH(3′)-IIIa (SEQ ID NO:3), AAC(6′)Ie-APH(2″)-Ia (SEQ ID NO:4), AAC(3)-III (SEQ ID NO:1), and AAC(3)-IV (SEQ ID NO:5) respectively, were individually incubated in a vial of competent cells for 15 min on ice. The cells were subsequently heated to 42° C. for 90 s, and cooled on ice for 1 min. After addition of 900 μL LB, the cells were incubated for 1 h at 37° C. and 200 rpm. Cells were plated on LB-agar supplemented with 50 μg/mL KanaA and incubated for 18 h at 37° C. The next day, a single colony was inoculated in 5 mL LB supplemented with 50 μg/mL and grown for 18 h at 37° C. and 200 rpm. A 200 μL sample of each culture was diluted with 200 μL of 40% v/v glycerol in water, and stored at −80° C. The plasmid was purified from the remaining culture using the Plasmid Miniprep kit. Plasmid DNA was investigated by Eurofins Genomics (Germany) to confirm the identity of the aminoglycoside resistance genes.
(§2) 3.1 Against E. coli Strains
(§3) Tested reference compounds. Amikacin sulfate (Cat. No. 01693, Chem-Impex), Gentamicin sulfate (Cat. No. G4918, Sigma Aldrich).
(§4) Microbial strains. E. coli ATCC 25922, E. coli ATCC 25922/pET-9b(+), E. coli ATCC 25922/pAT21-1, E. coli ATCC 25922/pBluescript::AAC(6′)-Ie/APH(2″)-Ia, E. coli ATCC 25922/pBlue_lpp_aacC3_rrnC, E. coli ATCC 25922/pSET152.
(§5) Culture media and equipment. BBL™ Mueller Hinton Broth 2 (Lot. BCBW1143, Cat. No. 70192, Sigma); Kanamycin A (Cat. No. A1493, AppliChem); 96-well deep well plate, 1 mL (Cat. No. 0030506.200, Eppendorf); Plate lids (Cat. No. 0030131.525, Eppendorf); 96-well plate, F-bottom (Cat. No. 781602, Brand; Incubator, Infors Multitron Pro); Laminar flow (Heraeus KS12); UV/VIS meter (Eppendorf BioPhotometer Plus); Platereader (Tecan Sunrise).
(§6) Compound preparation. Compounds were prepared in MH2 media at a concentration of 5 mM and stored at 4° C. For testing, solutions of 128 μM were prepared in MH2. Out of these working solutions, 400 μL was transferred to wells in the first column of 96-well deep well plates. Each compound was transferred in triplicate. Plates were previously filled with 200 μL of MH2 media in all wells except for the wells in the first column. After compound and antibiotic addition, the compounds were serial two-fold diluted by transferring 200 μL from the first to the second column, then from the second to the third column and so on. Finally, 200 μL was removed from the last column.
(§7) Inoculum preparation. Microorganisms used were all revived from 20% glycerol (40% v/v glycerol in water was diluted with MH2) storage at −80° C. by inoculating them in 5 mL MH2. inoculums of E. coli containing a plasmid were selected for by adding 50 μg/mL KanaA. The Inoculums were grown to an optical density (measured by UV/Vis spectroscopy) of 0.6-0.8 at 600 nm. Out of these suspensions, actual inoculums were prepared by diluting them to an optical density (OD) of 0.1 in MH2 media. From these inoculums, 200 μL was transferred to each well, resulting in a final compound concentration range of 64 μM-31.3 nM. All plates were incubated at 900 rpm and 70% rH for 18 h at 37° C.
(§8) MIC determination. After 18 h of growth, 200 μL was transferred to a 96-well F-bottom plate. The optical density was determined by a plate reader at 600 nm, with 10 s shaking before reading. Triplicate measurements were averaged, and a growth curve was plotted in Microsoft Excel. […]

[2] = tested on: E. coli ATCC25922 strain; assay: MIC 50, broth micro-dilution, wild-type Escherichia coli; assay type: cell-based; details: MH2, 18 h
Description: as §2, §3, §4, §5, §6, §7
MIC determination. After 18 h of growth, 200 μL was transferred to a 96-well F-bottom plate. The optical density was determined by a plate reader at 600 nm, with 10 s shaking before reading. Triplicate measurements were averaged, and a growth curve was plotted in Microsoft Excel. The first column in which the growth reached half the value of maximum growth was determined as the MIC50 value for that particular compound.
MIC50. The MIC50 of a compound was assigned at which the bacterial growth reached half the value of maximum growth.

[3] = tested on: E. coli (AAC(6′)Ie-APH(2″)Ia); assay: MIC 50, broth micro-dilution, E. coli expressing AAC(6′)Ie-APH(2″)Ia; assay type: cell-based, Escherichia coli
Protocol: as §1, §2, §3, §4, §5, §6, §7, §8

[4] = tested on: E. coli (AAC(3)III); assay: MIC 50, broth micro-dilution, E. coli expressing AAC(3)III; assay type: cell-based, Escherichia coli
Description: Cloning resistant enzymes. An Escherichia coli codon optimized gene encoding AAC(3)-III (GenBank acc.nr. X55652.1; SEQ ID NO:1), including a promoter and terminator sequence, was synthesized by Integrated DNA Technologies, Belgium. The synthesized gene and pBluescript II KS(+) plasmid were digested using the restriction enzymes SacI and SalI, and purified from a 1% TBE-agarose gel using the illustra Gel Band purification kit. The purified linear plasmid and T4 DNA ligase were used to ligate aac(3)-III under control of the constitutive lipoprotein Ipp promoter and ribosomal RNA rrnC terminator, resulting in pBlue_Ipp_aacC3_rrnC.
as §1, §2, §3, §4, §5, §6
Inoculum preparation. Microorganisms used were all revived from 20% glycerol (40% v/v glycerol in water was diluted with MH2) storage at −80° C. by inoculating them in 5 mL MH2. inoculums of E. coli containing a plasmid were selected for by adding 50 μg/mL KanaA.

[5] = ATCC25922 harboring plasmid encoding AAC(3)IV
[6] = ATCC25922 harboring plasmid encoding AAC(6′)Ie-APH(2″)Ia
[7] = ATCC25922 harboring plasmid encoding AAC(3)III
[8] = Escherichia coli, ATCC25922, ATCC25922 harboring plasmid encoding AAC(3)IV
[9] = Escherichia coli, ATCC25922, 18 h
[10] = Escherichia coli, ATCC25922, ATCC25922 harboring plasmid encoding AAC(6′)Ie-APH(2″)Ia
[11] = Escherichia coli, ATCC25922, ATCC25922 harboring plasmid encoding AAC(3)III

Compound	MIC50 [1, 5]	MIC50 [2]	MIC50 [3, 6]	MIC50 [4, 7]	MIC50 [1, 8]	MIC50 [2, 9]	MIC50 [3, 10]	MIC50 [4, 11]
NCC[C@H](O)C(=O)N[C@@H]1C[C@H](N)[C@@H](O[C@H]2O[C@H](CN)[C@@H](O)[C@@H](O)[C@H]2O)[C@H](O)[C@H]1O[C@H]1O[C@H](CO)[C@@H](O)[C@H](N)[C@H]1O [ABX3002, 3′Epi-KanaA-AHB]	32 µM (≈ 18.7 µg/mL)	16 to 32 µM	16 µM (≈ 9.37 µg/mL)	16 µM (≈ 9.37 µg/mL)	–	–	–	–
N=C(N)NC1[C@@H](O)C(OC2[C@@H](F)[C@H](O[C@H]3OC(CN)[C@@H](O)[C@H](O)C3O)C(N)C[C@H]2NC(=O)[C@@H](O)CCN)O[C@H](CO)[C@H]1O (stereo partly drawn) [ABX3003, 3′epi-KanaA-AHB-F-Gua]	–	–	–	–	4 µM (≈ 2.52 µg/mL)	2 µM (≈ 1.26 µg/mL)	2 µM (≈ 1.26 µg/mL)	1 µM (≈ 0.63 µg/mL)
NCCC(O)C(=O)NC1CC(N)C(OC2OC(CN)C(O)C(O)C2O)C(F)C1OC1OC(CO)C(O)C(N)C1O (stereo not drawn) [ABX3005, 3′Epi-KanaA-AHB-F]	8 to 16 µM	4 µM (≈ 2.35 µg/mL)	4 µM (≈ 2.35 µg/mL)	4 µM (≈ 2.35 µg/mL)	–	–	–	–
NCCC(O)C(=O)NC1CC(N)C(OC2OC(CN)C(O)C(O)C2N)C(O)C1OC1OC(CO)C(O)C(N)C1O (stereo not drawn) [ABX4001, KanaB-AHB]	4 µM (≈ 2.34 µg/mL)	2 µM (≈ 1.17 µg/mL)	4 to 8 µM	1 to 2 µM	–	–	–	–
NCC[C@H](O)C(=O)N[C@@H]1CC(N)[C@@H](O[C@H]2OC(CN)[C@@H](O)[C@@H](O)C2N)[C@H](O)C1OC1O[C@H](CO)[C@@H](O)C(N)[C@H]1O (stereo partly drawn) [ABX4002, 3′Epi-KanaB-AHB]	8 to 16 µM	8 µM (≈ 4.68 µg/mL)	4 to 8 µM	4 µM (≈ 2.34 µg/mL)	–	–	–	–
NCC[C@H](O)C(=O)N[C@@H]1CC(N)[C@@H](O[C@H]2OC(CN)[C@@H](O)[C@@H](O)C2N)[C@H](F)C1OC1O[C@H](CO)[C@@H](O)C(N)[C@H]1O (stereo partly drawn) [ABX4003, 3′Epi-KanaB-AHB-F]	8 to 16 µM	4 to 8 µM	8 µM (≈ 4.69 µg/mL)	2 µM (≈ 1.17 µg/mL)	–	–	–	–
N=C(N)NC1[C@@H](O)C(OC2[C@@H](F)[C@H](O[C@H]3OC(CN)[C@@H](O)[C@H](O)C3N)C(N)C[C@H]2NC(=O)[C@@H](O)CCN)O[C@H](CO)[C@H]1O (stereo partly drawn) [ABX4004, 3′epi-KanaB-AHB-F-Gua]	4 µM (≈ 2.51 µg/mL)	1 to 2 µM	2 µM (≈ 1.26 µg/mL)	0.5 µM (≈ 0.314 µg/mL)	–	–	–	–
N=C(N)N[C@@H]1[C@@H](O)[C@@H](O[C@@H]2[C@@H](O)[C@H](O[C@H]3O[C@H](CN)[C@@H](O)[C@@H](O)[C@H]3N)[C@@H](N)C[C@H]2NC(=O)[C@@H](O)CCN)O[C@H](CO)[C@H]1O [ABX4005, 3′Epi-KanaB-AHB-Gua]	16 µM (≈ 10 µg/mL)	4 µM (≈ 2.51 µg/mL)	8 µM (≈ 5.01 µg/mL)	4 µM (≈ 2.51 µg/mL)	–	–	–	–
N=C(N)NC1[C@@H](O)C(OC2[C@@H](F)[C@H](O[C@H]3OC(CN)[C@@H](O)[C@H](O)C3N)C(N)C[C@H]2NC(=O)[C@@H](O)CCN)O[C@H](CO)[C@H]1O (stereo partly drawn) [ABX4006, KanaB-AHB-F-Gua]	–	–	–	–	2 µM (≈ 1.26 µg/mL)	–	1 µM (≈ 0.629 µg/mL)	0.25 µM (≈ 0.157 µg/mL)
NCCC(O)C(=O)NC1CC(N)C(OC2OC(CN)C(O)C(O)C2N)C(F)C1OC1OC(CO)C(O)C(N)C1O (stereo not drawn) [ABX4007, KanaB-AHB-F]	4 to 8 µM	1 µM (≈ 0.587 µg/mL)	2 to 4 µM	1 µM (≈ 0.587 µg/mL)	–	–	–	–
N=C(N)NC1[C@@H](O)C(OC2[C@@H](O)[C@H](O[C@H]3OC(CN)[C@@H](O)[C@H](O)C3N)C(N)C[C@H]2NC(=O)[C@@H](O)CCN)O[C@H](CO)[C@H]1O (stereo partly drawn) [ABX4009, KanaB-AHB-Gua]	8 µM (≈ 5.01 µg/mL)	2 µM (≈ 1.25 µg/mL)	2 to 4 µM	1 to 2 µM	–	–	–	–
NCC[C@H](O)C(=O)N[C@@H]1CC(N)[C@@H](O[C@H]2OC(CN)[C@@H](O)CC2N)[C@H](O)C1OC1O[C@H](CO)[C@@H](O)C(N)[C@H]1O (stereo partly drawn) [ABX5004, Tobra-AHB]	4 µM (≈ 2.27 µg/mL)	2 µM (≈ 1.14 µg/mL)	4 µM (≈ 2.27 µg/mL)	1 µM (≈ 0.569 µg/mL)	–	–	–	–
N=C(N)NC1[C@@H](O)C(OC2[C@@H](O)[C@H](O[C@H]3OC(CN)[C@@H](O)CC3N)C(N)C[C@H]2NC(=O)[C@@H](O)CCN)O[C@H](CO)[C@H]1O (stereo partly drawn) [ABX5005, Tobra-AHB-Gua]	1 to 2 µM	1 to 2 µM	2 µM (≈ 1.22 µg/mL)	0.5 µM (≈ 0.305 µg/mL)	–	–	–	–
N=C(N)NC1C(O)[C@@H](CO)OC(OC2C(F)[C@H](O[C@H]3OC(CN)[C@@H](O)CC3N)C(N)C[C@H]2NC(=O)[C@@H](O)CCN)[C@@H]1O (stereo partly drawn) [ABX5006, Tobra-AHB-F-Gua]	–	–	–	–	0.5 to 1 µM (≈ 0.306 to 0.613 µg/mL)	< 0.25 µM	< 0.25 µM	0.25 µM (≈ 0.153 µg/mL)
N=C(NCCN)NC1C(O)[C@@H](CO)OC(OC2C(F)[C@H](O[C@H]3OC(CN)[C@@H](O)CC3N)C(N)C[C@H]2NC(=O)[C@@H](O)CCN)[C@@H]1O (stereo partly drawn) [ABX5020, Tobra-AHB-F-Gua-2-amino-ethyl]	–	–	–	–	1 µM (≈ 0.656 µg/mL)	0.5 µM (≈ 0.328 µg/mL)	0.5 µM (≈ 0.328 µg/mL)	0.25 to 0.5 µM (≈ 0.164 to 0.328 µg/mL)
NCC[C@H](O)C(=O)N[C@@H]1CC(N)[C@@H](O[C@H]2OC(CN)[C@@H](O)CC2N)[C@H](F)C1OC1O[C@H](CO)[C@@H](O)C(N)[C@H]1O (stereo partly drawn) [ABX5024, Tobra-AHB-F]	2 µM (≈ 1.14 µg/mL)	1 µM (≈ 0.571 µg/mL)	1 µM (≈ 0.571 µg/mL)	1 µM (≈ 0.571 µg/mL)	–	–	–	–

Source: patent US20220127297A1, “Novel Antibacterial 3"-Derivatives Of 4,6-Disubstituted 2,5-Dideoxystreptamine Aminoglycoside Antibiotics” (AGILeBiotics B.V., priority 2018, published 2022)
